Assay results from article PMC7166077, “A systematic strategy for estimating hERG block potency and its implications in a new cardiac safety paradigm” (Toxicology and Applied Pharmacology, 2020).

Target: T1, hERG (Kv11.1 potassium channel) (Homo sapiens, UniProt Q12809)
T1 construct: gene KCNH2
Test: automated patch clamp, multi-site, Bayesian hierarchical model

T1 sequence (Q12809 whole entry): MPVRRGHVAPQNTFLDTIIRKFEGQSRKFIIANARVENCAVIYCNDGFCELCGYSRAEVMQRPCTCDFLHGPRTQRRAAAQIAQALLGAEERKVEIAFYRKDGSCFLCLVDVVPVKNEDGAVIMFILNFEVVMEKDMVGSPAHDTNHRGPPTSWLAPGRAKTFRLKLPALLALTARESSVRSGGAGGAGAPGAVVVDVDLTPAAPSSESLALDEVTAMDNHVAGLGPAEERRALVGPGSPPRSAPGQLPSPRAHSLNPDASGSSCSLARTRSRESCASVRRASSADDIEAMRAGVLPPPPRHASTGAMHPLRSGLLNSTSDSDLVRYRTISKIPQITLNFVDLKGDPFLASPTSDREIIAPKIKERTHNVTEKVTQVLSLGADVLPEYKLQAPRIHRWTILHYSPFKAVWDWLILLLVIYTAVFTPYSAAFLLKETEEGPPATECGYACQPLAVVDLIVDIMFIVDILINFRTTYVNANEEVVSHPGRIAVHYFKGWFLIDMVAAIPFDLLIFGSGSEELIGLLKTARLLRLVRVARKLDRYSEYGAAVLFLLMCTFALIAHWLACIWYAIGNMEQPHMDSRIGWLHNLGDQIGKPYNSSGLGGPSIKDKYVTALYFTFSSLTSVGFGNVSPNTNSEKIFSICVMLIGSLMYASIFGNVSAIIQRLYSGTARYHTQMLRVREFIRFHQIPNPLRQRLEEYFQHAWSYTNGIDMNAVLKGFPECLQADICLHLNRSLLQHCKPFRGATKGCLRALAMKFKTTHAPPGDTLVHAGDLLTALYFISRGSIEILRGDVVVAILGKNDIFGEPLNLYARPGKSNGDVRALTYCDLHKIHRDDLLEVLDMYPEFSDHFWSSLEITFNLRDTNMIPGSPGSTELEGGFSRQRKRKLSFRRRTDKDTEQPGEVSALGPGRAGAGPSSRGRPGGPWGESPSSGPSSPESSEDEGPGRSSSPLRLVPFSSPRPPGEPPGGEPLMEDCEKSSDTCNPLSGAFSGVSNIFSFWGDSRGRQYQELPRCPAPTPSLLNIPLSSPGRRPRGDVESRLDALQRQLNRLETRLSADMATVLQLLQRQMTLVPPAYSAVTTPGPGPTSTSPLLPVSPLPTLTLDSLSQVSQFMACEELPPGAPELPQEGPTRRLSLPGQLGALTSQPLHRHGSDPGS

In the case of `CCOC(=O)C1=C(C)NC(C)=C(C(=O)OC)C1c1cccc([N+](=O)[O-])c1` (stereo not shown) [nitrendipine], the IC50 is reported as 20 µM.
